Columns and labels:
human orexin 1 receptor = target: T1, human orexin 1 receptor (Homo sapiens, UniProt O43613); experiment: Calcium accumulation in cells (FLIPR), antagonism of orexin A, human orexin 1 receptor; type: cell-based; conditions: for Ki: calcium accumulation, antagonism of orexin A, Cheng-Prusoff corrected, read-out: FLIPR hOx1R Ki; for inhibition at 10 µM: measured at a concentration of 10 μM of compound, read-out: FLIPR hOx1R % inhibition
T1 construct: expressed in transfected cells
T1 sequence (O43613 1-425): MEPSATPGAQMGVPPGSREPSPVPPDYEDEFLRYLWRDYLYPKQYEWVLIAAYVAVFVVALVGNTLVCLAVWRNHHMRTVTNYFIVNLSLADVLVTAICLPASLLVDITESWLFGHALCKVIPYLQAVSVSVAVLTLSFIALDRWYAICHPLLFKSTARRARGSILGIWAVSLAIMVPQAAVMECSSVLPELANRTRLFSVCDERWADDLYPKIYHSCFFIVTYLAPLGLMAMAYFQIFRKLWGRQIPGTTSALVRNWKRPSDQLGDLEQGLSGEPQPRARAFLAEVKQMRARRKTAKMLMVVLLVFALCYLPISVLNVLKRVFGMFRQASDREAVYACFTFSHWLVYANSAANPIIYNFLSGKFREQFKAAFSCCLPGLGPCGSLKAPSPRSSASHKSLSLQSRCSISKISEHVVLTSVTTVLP

human orexin 2 receptor = target: T2, human orexin 2 receptor (Homo sapiens, UniProt O43614); experiment: Calcium accumulation in cells (FLIPR), antagonism of orexin A, human orexin 2 receptor; type: cell-based; conditions: for Ki: calcium accumulation, antagonism of orexin A, Cheng-Prusoff corrected, read-out: FLIPR hOx2R Ki; for inhibition at 10 µM: measured at a concentration of 10 μM of compound, read-out: FLIPR hOx2R % inhibition
T2 construct: expressed in transfected cells
T2 sequence (O43614 1-444): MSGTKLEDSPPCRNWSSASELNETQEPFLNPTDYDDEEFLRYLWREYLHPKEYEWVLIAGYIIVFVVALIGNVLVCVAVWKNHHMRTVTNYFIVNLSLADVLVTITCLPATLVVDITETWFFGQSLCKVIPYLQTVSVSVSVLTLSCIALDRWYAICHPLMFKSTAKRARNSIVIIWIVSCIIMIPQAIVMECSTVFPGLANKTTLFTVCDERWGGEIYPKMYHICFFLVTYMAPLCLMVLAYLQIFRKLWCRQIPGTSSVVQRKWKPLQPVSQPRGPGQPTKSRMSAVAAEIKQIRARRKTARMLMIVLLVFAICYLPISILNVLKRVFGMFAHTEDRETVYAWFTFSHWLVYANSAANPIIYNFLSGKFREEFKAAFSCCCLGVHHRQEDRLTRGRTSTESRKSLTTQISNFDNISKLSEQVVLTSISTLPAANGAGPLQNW

Which results are given for `O=C1N(Cc2c[nH]c3ccccc23)CCC12CCN(c1nccc(C(F)(F)F)n1)C2` (stereo not shown) [Example 5.41, 2-((1H-indol-3-yl)methyl)-7-(4-(trifluoromethyl)pyrimidin-2-yl)-2,7-diazaspiro[4.4]nonan-1-one]?
Ki (human orexin 1 receptor): 2410 nM; Ki (human orexin 2 receptor): 343 nM

How did the Ki (human orexin 1 receptor) turn out when `COc1cc(C)nc(N2CCC3(CCN(Cc4ccccc4-c4nc(C)no4)C3=O)C2)n1` (stereo not shown) [Example 5.42, 7-(4-methoxy-6-methylpyrimidin-2-yl)-2-(2-(3-methyl-1,2,4-oxadiazol-5-yl)benzyl)-2,7-diazaspiro[4.4]nonan-1-one] was run?
Its Ki is 1950 nM.

And the Ki (human orexin 2 receptor)?
The Ki was 180 nM.

For `COc1cc(C)nc(N2CCC3(CCN(Cc4nn(C)nc4Br)C3=O)C2)n1` (stereo not shown) [Example 5.46, 2-((5-bromo-2-methyl-2H-1,2,3-triazol-4-yl)methyl)-7-(4-methoxy-6-methylpyrimidin-2-yl)-2,7-diazaspiro[4.4]nonan-1-one], which inhibition at 10 µM (human orexin 1 receptor) is on record?
Its inhibition at 10 µM is < 10%.

And the inhibition at 10 µM (human orexin 2 receptor)?
Its inhibition at 10 µM is 21%.

With `O=C1N(Cc2c[nH]c3ccccc23)CCC12CCCN(c1cnc3ccccc3n1)C2` (stereo not shown) [Example 6.1] as the compound, how does the Ki (human orexin 1 receptor) read?
Its Ki is 1130 nM.

What about the Ki (human orexin 2 receptor) of the same compound?
The Ki was 639 nM.

What does the source list for `COc1ccnc(N2CCC3(CCCN(Cc4c[nH]c5ncccc45)C3=O)C2)n1` (stereo not shown) [Example 7.2, 7-((1H-Pyrrolo[2,3-b]pyridin-3-yl)methyl)-2-(4-methoxypyrimidin-2-yl)-2,7-diazaspiro[4.5]decan-6-one]?
Ki (human orexin 1 receptor): 3200 nM; Ki (human orexin 2 receptor): 703 nM

With `COc1ccnc(N2CCC3(CCCN(Cc4n[nH]c5ccccc45)C3=O)C2)n1` (stereo not shown) [Example 7.3, 7-((1H-Indazol-3-yl)methyl)-2-(4-methoxypyrimidin-2-yl)-2,7-diazaspiro[4.5]decan-6-one] as the compound, how does the Ki (human orexin 1 receptor) read?
The Ki was 1430 nM.

What about the Ki (human orexin 2 receptor) of the same compound?
The Ki was 234 nM.

How did the Ki (human orexin 1 receptor) turn out when `COc1ccnc(N2CCC3(CCCN(Cc4ccccc4-c4nc(C)no4)C3=O)C2)n1` (stereo not shown) [Example 7.5, 2-(4-Methoxypyrimidin-2-yl)-7-(2-(3-methyl-1,2,4-oxadiazol-5-yl)benzyl)-2,7-diazaspiro[4.5]decan-6-one] was run?
Its Ki is 981 nM.

What about the Ki (human orexin 2 receptor) of the same compound?
Its Ki is 221 nM.

With `COc1cccc(-c2nn(C)nc2CN2CCCC3(CCN(c4nccc(OC)n4)C3)C2=O)c1` (stereo not shown) [Example 7.7, 7-((5-(3-Methoxyphenyl)-2-methyl-2H-1,2,3-triazol-4-yl)methyl)-2-(4-methoxypyrimidin-2-yl)-2,7-diazaspiro[4.5]decan-6-one] as the compound, how does the Ki (human orexin 1 receptor) read?
Its Ki is 537 nM.

And the Ki (human orexin 2 receptor)?
Its Ki is 366 nM.

For `O=C1N(Cc2c[nH]c3ccccc23)CCCC12CCN(c1nc3ccccc3o1)C2` (stereo not shown) [Example 7.8, 7-((1H-Indol-3-yl)methyl)-2-(benzo[d]oxazol-2-yl)-2,7-diazaspiro[4.5]decan-6-one], which Ki (human orexin 1 receptor) is on record?
The Ki was 98 nM.

And the Ki (human orexin 2 receptor)?
The Ki was 168 nM.

Which Ki (human orexin 1 receptor) does the source give for `COc1cc(C)nc(N2CCC3(CCCN(Cc4c[nH]c5ncccc45)C3=O)C2)n1` (stereo not shown) [Example 7.13, 7-((1H-pyrrolo[2,3-b]pyridin-3-yl)methyl)-2-(4-methoxy-6-methylpyrimidin-2-yl)-2,7-diazaspiro[4.5]decan-6-one] here?
Its Ki is 299 nM.

What about the Ki (human orexin 2 receptor) of the same compound?
Its Ki is 115 nM.

What does the source list for `Cc1cncc(N2CCC3(CCC(=O)N3Cc3cccc4[nH]ccc34)CC2)n1` [Example 8.2, 1-((1H-Indol-4-yl)methyl)-8-(6-methylpyrazin-2-yl)-1,8-diazaspiro[4.5]decan-2-one]?
inhibition at 10 µM (human orexin 1 receptor): 12%; Ki (human orexin 2 receptor): 133 nM

With `O=C1COCC2(CCN(c3cnc4ccccc4n3)CC2)N1Cc1c[nH]c2ccccc12` [Example 8.8, 1-((1H-Indol-3-yl)methyl)-9-(quinoxalin-2-yl)-4-oxa-1,9-diazaspiro[5.5]undecan-2-one] as the compound, how does the inhibition at 10 µM (human orexin 1 receptor) read?
Its inhibition at 10 µM is 33%.

And the Ki (human orexin 2 receptor)?
The Ki was 635 nM.

What does the source list for `Cn1ccc2c(CN3C(=O)COCC34CCN(c3cnc5ccccc5n3)CC4)cccc21` [Example 8.10, 1-((1-Methyl-1H-indol-4-yl)methyl)-9-(quinoxalin-2-yl)-4-oxa-1,9-diazaspiro[5.5]undecan-2-one]?
Ki (human orexin 1 receptor): 265 nM; Ki (human orexin 2 receptor): 202 nM

Which Ki (human orexin 1 receptor) does the source give for `O=C1COCC2(CCN(c3cnc4ccccc4n3)CC2)N1Cc1cccc(-c2cccnc2)c1` [Example 8.12, 1-(3-(Pyridin-3-yl)benzyl)-9-(quinoxalin-2-yl)-4-oxa-1,9-diazaspiro[5.5]undecan-2-one] here?
Its Ki is 232 nM.

What about the inhibition at 10 µM (human orexin 2 receptor) of the same compound?
Its inhibition at 10 µM is 30%.

From patent publication US20120165331A1, “Di/tri-aza-spiro-C9-C11alkanes” (priority 2010, published 2012)
